Results from ChEMBL document CHEMBL1145094, “A novel and selective 5-HT2 receptor agonist with ocular hypotensive activity: (S)-(+)-1-(2-aminopropyl)-8,9-dihydropyrano[3,2-e]indole” (J Med Chem, 2003).

Columns and labels:
[1] = biological target: T1, 5-hydroxytryptamine receptor 1A (Homo sapiens, UniProt P08908); test: In vitro inhibitory concentration required against [3H]8-OH-DPAT binding to cloned human 5-hydroxytryptamine 1A receptor
T1 sequence (P08908 whole entry): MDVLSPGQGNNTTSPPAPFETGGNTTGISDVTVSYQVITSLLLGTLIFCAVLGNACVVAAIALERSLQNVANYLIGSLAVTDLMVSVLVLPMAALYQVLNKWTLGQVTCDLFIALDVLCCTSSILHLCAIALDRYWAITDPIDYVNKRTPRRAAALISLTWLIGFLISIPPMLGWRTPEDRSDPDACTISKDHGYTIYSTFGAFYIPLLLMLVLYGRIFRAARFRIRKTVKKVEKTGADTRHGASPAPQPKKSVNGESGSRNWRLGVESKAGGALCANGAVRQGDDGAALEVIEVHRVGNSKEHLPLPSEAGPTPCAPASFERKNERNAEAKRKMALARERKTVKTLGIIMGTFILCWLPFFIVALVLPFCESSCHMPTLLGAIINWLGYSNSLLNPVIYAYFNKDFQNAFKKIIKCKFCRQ

[2] = biological target: T2, 5-hydroxytryptamine receptor 2A (Rattus norvegicus, UniProt P14842); test: In vitro relative agonist activity against 5-hydroxytryptamine 2A using PI assay in rat vascular smooth muscle cells; type: functional
[3] = biological target: 5-hydroxytryptamine receptor 2A (Rattus norvegicus) (UniProt P14842); test: In vitro efficacy against rat 5-hydroxytryptamine 2A receptor was determined by using CA+ assay (Emax)
[4] = biological target: 5-hydroxytryptamine receptor 2A (Rattus norvegicus) (UniProt P14842); test: In vitro efficacy against rat 5-hydroxytryptamine 2A receptor determined by using PI assay (Emax)
[5] = biological target: T3, 5-hydroxytryptamine receptor 2C (Homo sapiens, UniProt P28335); test: Inhibitory constant against cloned human 5-hydroxytryptamine 2C receptor using with [125I]- DOI radioligand
T3 sequence (P28335 whole entry): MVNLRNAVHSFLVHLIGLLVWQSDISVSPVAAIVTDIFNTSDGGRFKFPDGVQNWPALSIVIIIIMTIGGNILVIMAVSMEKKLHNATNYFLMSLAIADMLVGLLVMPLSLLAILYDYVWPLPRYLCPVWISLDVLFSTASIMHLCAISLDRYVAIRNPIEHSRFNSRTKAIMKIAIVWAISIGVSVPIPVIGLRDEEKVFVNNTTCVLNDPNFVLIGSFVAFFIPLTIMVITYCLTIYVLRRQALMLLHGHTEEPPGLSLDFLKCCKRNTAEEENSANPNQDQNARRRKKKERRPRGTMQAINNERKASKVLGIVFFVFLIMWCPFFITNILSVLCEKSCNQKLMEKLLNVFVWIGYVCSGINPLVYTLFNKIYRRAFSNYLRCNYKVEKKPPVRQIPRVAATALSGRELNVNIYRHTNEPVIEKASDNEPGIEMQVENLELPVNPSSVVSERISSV

[6] = biological target: T2, 5-hydroxytryptamine receptor 2A; test: In vitro inhibition of [125I]DOI binding to 5-hydroxytryptamine 2A receptor in rat cerebral cortex; type: tissue-based
[7] = biological target: T4, 5-hydroxytryptamine receptor 2A (Homo sapiens, UniProt P28223); test: Inhibitory constant determined against cloned human 5-hydroxytryptamine 2A receptor using with [125I]- DOI radioligand
Target sequence in this assay (P28223 whole entry): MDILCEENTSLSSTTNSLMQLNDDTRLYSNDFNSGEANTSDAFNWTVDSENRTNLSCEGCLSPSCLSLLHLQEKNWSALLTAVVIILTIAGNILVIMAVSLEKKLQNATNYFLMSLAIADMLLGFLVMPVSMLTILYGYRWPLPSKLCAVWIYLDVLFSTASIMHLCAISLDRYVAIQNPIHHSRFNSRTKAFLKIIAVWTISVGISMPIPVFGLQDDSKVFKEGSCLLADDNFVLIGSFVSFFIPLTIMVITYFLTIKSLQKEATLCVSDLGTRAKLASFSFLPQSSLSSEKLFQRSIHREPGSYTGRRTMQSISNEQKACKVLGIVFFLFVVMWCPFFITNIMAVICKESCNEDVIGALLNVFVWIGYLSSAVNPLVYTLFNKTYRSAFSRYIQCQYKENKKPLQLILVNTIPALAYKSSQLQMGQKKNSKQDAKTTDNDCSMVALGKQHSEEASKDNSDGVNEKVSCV

[8] = biological target: 5-hydroxytryptamine receptor 2B (Homo sapiens, UniProt P41595); test: Inhibitory constant against cloned human 5-hydroxytryptamine 2B receptor using with [125I]- DOI radioligand
[9] = biological target: T2, 5-hydroxytryptamine receptor 2A; test: In vitro inhibitory constant against [125I]DOI binding to 5-hydroxytryptamine 2A receptor in rat cerebral cortex; type: tissue-based
Monkey [10] = test: Tested for the ability to lower IOP in conscious cynomolgus monkeys with laser-induced ocular hypertension after 1 hr postdose of the compound; type: functional, Cercopithecidae, Eye
Monkey [11] = test: Tested for the ability to lower IOP in conscious cynomolgus monkeys with laser-induced ocular hypertension after 3h postdose of the compound; type: functional, Cercopithecidae, Eye
Monkey [12] = test: Tested for the ability to lower IOP in conscious cynomolgus monkeys with laser-induced ocular hypertension after 6 hr postdose of the compound; type: functional, Cercopithecidae, Eye
[13] = biological target: 5-hydroxytryptamine receptor 1B (Homo sapiens, UniProt P28222); test: Inhibitory constant against 5-hydroxytryptamine 1B receptor using with [125I]- cyanopindolol radioligand
[14] = biological target: T4, 5-hydroxytryptamine receptor 2A; test: Inhibitory constant against cloned human 5-hydroxytryptamine 2A receptor using with [125I]- DOI radioligand
[15] = biological target: 5-hydroxytryptamine receptor 1D (Homo sapiens, UniProt P28221); test: Inhibitory constant against human 5-hydroxytryptamine 1D receptor using [3H]5-CT radioligand
[16] = biological target: 5-hydroxytryptamine receptor 6 (Homo sapiens, UniProt P50406); test: Inhibitory constant against human 5-hydroxytryptamine 6 receptor using [3H]LSD radioligand
[17] = biological target: 5-hydroxytryptamine receptor 3A (Homo sapiens, UniProt P46098); test: Inhibitory constant against 5-hydroxytryptamine 3 receptor using [3H]GR-65630 radioligand
[18] = biological target: 5-hydroxytryptamine receptor 4 (Homo sapiens, UniProt Q13639); test: Inhibitory constant against 5-hydroxytryptamine 4 receptor using [3H]GR-113808 radioligand
[19] = biological target: 5-hydroxytryptamine receptor 5A (Homo sapiens, UniProt P47898); test: Inhibitory constant against human 5-hydroxytryptamine 5A receptor using [3H]LSD radioligand
[20] = biological target: Alpha-2A adrenergic receptor (Homo sapiens, UniProt P08913); test: (§1) Inhibitory concentration required against Alpha-2A adrenergic receptor using [3H]clonidine radioligand
[21] = biological target: T5, Alpha-2C adrenergic receptor (Homo sapiens, UniProt P18825); test: as §1
[22] = biological target: Alpha-1B adrenergic receptor (Rattus norvegicus, UniProt P15823); test: Inhibitory constant against Alpha-1B adrenergic radioligand
[23] = biological target: Alpha-2B adrenergic receptor (Rattus norvegicus, UniProt P19328); test: Inhibitory constant against Alpha-2B adrenergic receptor using [3H]MK-912 radioligand
[24] = biological target: T6, Alpha-1A adrenergic receptor (Rattus norvegicus, UniProt P43140); test: Inhibitory constant against alpha-1A receptor using [3H]-7-MeO prazosin radioligand
T6 sequence (P43140 whole entry): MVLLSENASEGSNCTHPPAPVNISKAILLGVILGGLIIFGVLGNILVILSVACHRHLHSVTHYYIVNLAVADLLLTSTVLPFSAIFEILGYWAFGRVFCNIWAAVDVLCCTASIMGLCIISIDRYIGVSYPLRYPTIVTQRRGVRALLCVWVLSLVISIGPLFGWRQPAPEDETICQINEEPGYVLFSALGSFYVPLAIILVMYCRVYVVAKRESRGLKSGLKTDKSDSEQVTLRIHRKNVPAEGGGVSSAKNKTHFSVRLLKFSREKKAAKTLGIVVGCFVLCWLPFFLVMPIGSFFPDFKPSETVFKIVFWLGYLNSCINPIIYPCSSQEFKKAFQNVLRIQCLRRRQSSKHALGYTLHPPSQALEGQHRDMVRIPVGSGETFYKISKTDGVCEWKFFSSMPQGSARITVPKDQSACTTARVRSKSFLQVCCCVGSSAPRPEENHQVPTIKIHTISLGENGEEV

[25] = biological target: Sodium-dependent noradrenaline transporter (Homo sapiens, UniProt P23975); test: Inhibitory constant against norepinephrine transporter receptor using [3H]radioligand
[26] = biological target: Sodium-dependent serotonin transporter (Homo sapiens, UniProt P31645); test: Inhibitory constant against human serotonin transporter using [3H]N-Me-citalopram radioligand
[27] = biological target: T1, 5-hydroxytryptamine receptor 1A; test: Tested for functional response on CHO cells expressing cloned human 5-hydroxytryptamine 1A receptor; type: cell-based
[28] = biological target: 5-hydroxytryptamine receptor 7 (Homo sapiens, UniProt P34969); test: Inhibitory constant against human 5-hydroxytryptamine 7 receptor using [3H]LSD radioligand
[29] = biological target: T6, Alpha-1A adrenergic receptor; test: Inhibitory constant against Alpha-1A adrenergic receptor using [3H]-7-MeO prazosin radioligand
[30] = biological target: T6, Alpha-1A adrenergic receptor; test: Inhibitory constant against Alpha-1B adrenergic receptor using [3H]-7-MeO prazosin radioligand
[31] = biological target: T5, Alpha-2C adrenergic receptor; test: Inhibitory concentration required against Alpha-2C adrenergic receptor using [3H]clonidine radioligand

Chain of 5-hydroxytryptamine receptor 2B (P41595 whole entry): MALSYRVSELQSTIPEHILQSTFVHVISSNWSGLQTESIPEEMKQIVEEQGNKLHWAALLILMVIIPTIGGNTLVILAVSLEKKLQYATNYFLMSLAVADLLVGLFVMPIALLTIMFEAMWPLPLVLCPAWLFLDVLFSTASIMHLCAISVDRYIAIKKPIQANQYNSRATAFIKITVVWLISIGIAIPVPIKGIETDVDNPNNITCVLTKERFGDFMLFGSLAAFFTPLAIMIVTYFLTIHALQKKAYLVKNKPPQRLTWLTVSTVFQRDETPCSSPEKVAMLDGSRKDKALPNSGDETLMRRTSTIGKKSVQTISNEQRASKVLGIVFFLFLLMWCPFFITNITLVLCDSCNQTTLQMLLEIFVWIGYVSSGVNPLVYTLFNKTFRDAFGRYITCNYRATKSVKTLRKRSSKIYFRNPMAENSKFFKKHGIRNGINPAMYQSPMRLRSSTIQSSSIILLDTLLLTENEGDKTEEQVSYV
T2 sequence (P14842 whole entry): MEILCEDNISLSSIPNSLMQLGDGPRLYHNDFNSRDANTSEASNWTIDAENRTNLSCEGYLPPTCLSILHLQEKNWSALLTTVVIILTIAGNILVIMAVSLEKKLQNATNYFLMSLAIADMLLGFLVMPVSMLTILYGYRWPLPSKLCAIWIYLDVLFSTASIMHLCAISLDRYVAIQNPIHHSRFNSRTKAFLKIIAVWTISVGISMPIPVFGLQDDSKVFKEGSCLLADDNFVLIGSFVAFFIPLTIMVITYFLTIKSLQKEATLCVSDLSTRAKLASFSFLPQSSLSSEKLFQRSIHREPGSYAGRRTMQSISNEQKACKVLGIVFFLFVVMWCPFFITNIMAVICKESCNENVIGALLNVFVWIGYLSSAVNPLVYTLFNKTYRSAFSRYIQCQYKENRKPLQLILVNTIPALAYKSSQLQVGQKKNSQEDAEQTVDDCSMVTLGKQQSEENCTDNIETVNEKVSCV
Chain of 5-hydroxytryptamine receptor 2A (Rattus norvegicus) (P14842 whole entry): as above
T5 sequence (P18825 whole entry): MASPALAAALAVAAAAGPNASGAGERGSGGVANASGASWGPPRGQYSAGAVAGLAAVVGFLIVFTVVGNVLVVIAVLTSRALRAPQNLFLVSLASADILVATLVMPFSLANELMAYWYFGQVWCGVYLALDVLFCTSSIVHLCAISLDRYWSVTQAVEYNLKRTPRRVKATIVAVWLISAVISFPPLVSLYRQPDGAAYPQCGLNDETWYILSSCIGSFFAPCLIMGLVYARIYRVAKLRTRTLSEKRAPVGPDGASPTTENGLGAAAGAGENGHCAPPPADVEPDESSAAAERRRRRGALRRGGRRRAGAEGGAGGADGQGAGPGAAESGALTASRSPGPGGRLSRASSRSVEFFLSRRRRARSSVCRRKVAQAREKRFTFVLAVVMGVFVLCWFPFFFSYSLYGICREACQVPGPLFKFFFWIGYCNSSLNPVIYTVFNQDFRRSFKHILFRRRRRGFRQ
Chain of 5-hydroxytryptamine receptor 3A (P46098 whole entry): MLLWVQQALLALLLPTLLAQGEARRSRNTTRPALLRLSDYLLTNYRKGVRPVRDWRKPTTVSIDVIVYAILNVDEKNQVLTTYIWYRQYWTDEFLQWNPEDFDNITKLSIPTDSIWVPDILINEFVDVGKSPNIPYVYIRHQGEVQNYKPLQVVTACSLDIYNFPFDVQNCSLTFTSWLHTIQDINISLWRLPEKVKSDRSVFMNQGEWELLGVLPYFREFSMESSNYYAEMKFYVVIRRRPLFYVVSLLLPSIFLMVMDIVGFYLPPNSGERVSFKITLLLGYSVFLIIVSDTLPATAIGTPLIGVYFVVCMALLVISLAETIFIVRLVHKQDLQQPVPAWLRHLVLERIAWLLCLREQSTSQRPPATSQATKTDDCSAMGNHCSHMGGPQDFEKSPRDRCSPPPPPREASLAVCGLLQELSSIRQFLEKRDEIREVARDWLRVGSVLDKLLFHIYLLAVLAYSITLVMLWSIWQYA
Chain of 5-hydroxytryptamine receptor 1B (P28222 whole entry): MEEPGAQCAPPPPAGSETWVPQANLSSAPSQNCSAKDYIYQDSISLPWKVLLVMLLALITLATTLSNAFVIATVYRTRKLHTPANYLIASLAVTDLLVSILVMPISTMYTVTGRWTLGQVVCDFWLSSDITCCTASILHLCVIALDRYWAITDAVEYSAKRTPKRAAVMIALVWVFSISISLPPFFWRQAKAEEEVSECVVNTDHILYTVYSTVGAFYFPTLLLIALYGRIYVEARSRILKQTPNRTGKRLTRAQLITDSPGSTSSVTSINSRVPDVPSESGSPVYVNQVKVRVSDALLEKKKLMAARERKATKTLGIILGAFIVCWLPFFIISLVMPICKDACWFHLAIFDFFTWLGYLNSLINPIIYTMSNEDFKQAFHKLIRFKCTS
Chain of Sodium-dependent serotonin transporter (P31645 whole entry): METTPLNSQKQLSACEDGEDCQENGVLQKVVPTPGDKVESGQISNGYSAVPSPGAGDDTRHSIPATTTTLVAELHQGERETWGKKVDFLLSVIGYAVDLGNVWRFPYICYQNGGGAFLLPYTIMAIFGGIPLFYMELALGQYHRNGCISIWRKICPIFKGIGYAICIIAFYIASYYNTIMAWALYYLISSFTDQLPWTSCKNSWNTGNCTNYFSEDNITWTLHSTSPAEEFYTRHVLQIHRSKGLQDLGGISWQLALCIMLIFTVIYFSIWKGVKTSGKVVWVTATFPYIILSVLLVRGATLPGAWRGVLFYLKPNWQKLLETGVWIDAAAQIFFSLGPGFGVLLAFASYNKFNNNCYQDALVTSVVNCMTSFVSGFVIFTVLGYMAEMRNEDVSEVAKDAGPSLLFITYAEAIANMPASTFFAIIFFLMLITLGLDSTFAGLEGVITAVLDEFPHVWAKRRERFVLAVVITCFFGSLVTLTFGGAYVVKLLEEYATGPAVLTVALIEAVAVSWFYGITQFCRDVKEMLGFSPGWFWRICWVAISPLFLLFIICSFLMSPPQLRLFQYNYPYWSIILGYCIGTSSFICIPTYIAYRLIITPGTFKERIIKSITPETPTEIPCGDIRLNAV
Chain of Alpha-2B adrenergic receptor (P19328 whole entry): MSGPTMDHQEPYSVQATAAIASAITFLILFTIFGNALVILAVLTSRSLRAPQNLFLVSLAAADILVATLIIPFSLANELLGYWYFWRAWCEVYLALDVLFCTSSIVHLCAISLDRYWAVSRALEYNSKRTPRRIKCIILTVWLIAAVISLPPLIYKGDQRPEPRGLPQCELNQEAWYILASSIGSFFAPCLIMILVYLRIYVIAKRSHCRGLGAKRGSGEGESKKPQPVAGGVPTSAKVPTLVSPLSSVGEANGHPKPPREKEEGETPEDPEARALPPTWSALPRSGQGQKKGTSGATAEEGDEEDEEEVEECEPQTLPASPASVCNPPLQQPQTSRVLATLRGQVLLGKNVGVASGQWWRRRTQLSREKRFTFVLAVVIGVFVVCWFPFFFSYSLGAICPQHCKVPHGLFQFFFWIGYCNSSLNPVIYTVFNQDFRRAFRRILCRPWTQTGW
Chain of 5-hydroxytryptamine receptor 5A (P47898 whole entry, looked up): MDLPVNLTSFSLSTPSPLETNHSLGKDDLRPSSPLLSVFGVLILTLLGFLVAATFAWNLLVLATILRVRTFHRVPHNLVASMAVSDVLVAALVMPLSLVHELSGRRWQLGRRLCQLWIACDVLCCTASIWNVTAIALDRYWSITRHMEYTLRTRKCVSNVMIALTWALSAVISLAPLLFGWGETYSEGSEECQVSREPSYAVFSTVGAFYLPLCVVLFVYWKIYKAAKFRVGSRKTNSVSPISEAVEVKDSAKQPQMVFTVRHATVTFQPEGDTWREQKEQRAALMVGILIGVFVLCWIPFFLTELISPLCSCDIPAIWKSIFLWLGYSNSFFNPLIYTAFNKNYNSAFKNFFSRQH
Chain of 5-hydroxytryptamine receptor 6 (P50406 whole entry): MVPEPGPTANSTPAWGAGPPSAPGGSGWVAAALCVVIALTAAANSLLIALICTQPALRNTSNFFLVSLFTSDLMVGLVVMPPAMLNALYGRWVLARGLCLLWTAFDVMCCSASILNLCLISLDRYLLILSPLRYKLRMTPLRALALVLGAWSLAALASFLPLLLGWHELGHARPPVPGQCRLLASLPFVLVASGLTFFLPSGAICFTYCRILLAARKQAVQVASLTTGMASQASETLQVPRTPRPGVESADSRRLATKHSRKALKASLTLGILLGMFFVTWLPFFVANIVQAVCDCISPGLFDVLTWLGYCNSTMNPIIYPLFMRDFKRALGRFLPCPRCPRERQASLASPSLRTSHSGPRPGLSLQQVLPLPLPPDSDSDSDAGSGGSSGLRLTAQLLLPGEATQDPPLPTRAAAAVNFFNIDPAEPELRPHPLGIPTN

SMILES	IC50 [1]	EC50 [2]	Efficacy [3]	Efficacy [4]	Ki [5]	IC50 [6]	Ki [7]	Ki [8]	Ki [9]	Reduction (Monkey [10])	Reduction (Monkey [11])	Reduction (Monkey [12])	Ki [14]	EC50 [27]	other results
C[C@@H](N)Cc1c[nH]c2ccc3c(c12)CCCO3	8.65 µM	292 nM	71%	83%	20 nM	1.5 nM	3.6 nM	19 nM	0.5 nM	<12.7%	<24.8%	<32.5%			
C[C@H](N)Cc1c[nH]c2ccc3c(c12)CCCO3	> 10 µM	80.1 nM	103%	90%	3.4 nM	0.5 nM		5.3 nM	0.2 nM	<18.1%	<33.2%	<37%	2 nM		Ki [13]: 3.3 µM; Ki [15]: > 10 µM; Ki [16]: 2200 nM; Ki [17]: > 10 µM; Ki [18]: 1700 nM; Ki [19]: > 10000 nM; IC50 [20]: 19 µM; IC50 [21]: 14 µM; Ki [22]: > 10 µM; Ki [23]: > 10 µM; Ki [24]: > 10 µM; Ki [25]: > 10 µM; Ki [26]: > 10 µM
CC(N)Cc1cn(C)c2ccc3c(c12)CCCO3 (stereo not given)	12.2 µM	134 nM	79%	102%	2.7 nM	0.5 nM		11 nM	0.2 nM	<18.8%	<28%	<26.1%	28 nM	> 10000 nM	
NCCc1c[nH]c2ccc3c(c12)CCCO3	0.287 µM	181 nM	99%	99%	6.3 nM	1.8 nM	4.9 nM	14 nM	0.6 nM						
CC(N)Cc1c[nH]c2ccc(O)cc12 (stereo not given)	0.0196 µM		99%	98%				13 nM					12 nM	378 nM	
CC(N)Cc1c[nH]c2ccc3c(c12)CCCO3 (stereo not given)	10.9 µM		97%	81%	5.5 nM	0.7 nM		13 nM	0.3 nM	<16%	<28%	<22.9%	3.6 nM	> 10000 nM	Ki [13]: > 10 µM; Ki [16]: 400 nM; Ki [17]: > 10 µM; Ki [18]: 1800 nM; Ki [19]: 1900 nM; Ki [28]: 24 µM; IC50 [20]: > 10 µM; Ki [23]: 10 µM; Ki [29]: > 30 µM; Ki [30]: > 30 µM; IC50 [31]: > 30 µM; Ki [25]: > 30 µM; Ki [26]: > 10 µM
CN(C)CCc1c[nH]c2ccc3c(c12)CCCO3	0.562 µM		47%	63%	16 nM		17 nM	26 nM							
COc1ccc2[nH]cc(CC(C)N)c2c1 (stereo not given)	0.0864 µM	285 nM	96%	107%	8.3 nM	4.4 nM		7.8 nM	1.6 nM	21.6%	35.2%	33.4%	4.6 nM	564 nM	
Cn1cc(CCN)c2c3c(ccc21)OCCC3	8.41 µM	213 nM	70%	96%		2.8 nM	8.2 nM		1.1 nM						
COc1cc(C[C@@H](C)N)c(OC)cc1I		27.7 nM	33%		4 nM	0.4 nM		18 nM	0.1 nM	11%	25.3%	34.4%			
